Test results published in patent US20230172914A1, “BIOMARKER-BASED THERAPEUTIC COMPOSITION” (WELLMARKER BIO CO., LTD., priority 2019, published 2023).

Tests used:
KM12C (RONΔ160) [1] = assay: MTS assay KM12C (Experimental Example 6); assay type: cell-based; details: Homo sapiens, 72 hours
Protocol: In MTS assay for Example 18 and Comparative Example 1, KM12C cell line was seeded at 1,000 cells per well into 96-well plates. After 24 hours, the cells were treated with various concentrations (0.000001 uM to 10 uM) of Example 18 and Comparative Example 1 in 100 ul of 10% FBS-MEM medium (Welgene) per well. Subsequently, the cells were incubated for 72 hours. Then, 20 μl of MTS solution (Promega) was added thereto, and incubation was performed for 2 hours. Then, the absorbance was measured at 490 nm. The IC50 values for Example 18 and Comparative Example 1 were calculated using GraphPad Prism™ 5 to investigate cytotoxicity.

KM12C (RONΔ160) [2] = assay: Cell death-inducing ability, trypan blue exclusion, KM12C; assay type: cell-based, human; details: 48 hours
Protocol: The cell death-inducing ability of Example 18 and Comparative Example 1 was measured in KM12C with RON mutant (Δ160), a cetuximab-resistant cell line, and Colo320HSR cell line, a cell line not expressing RON. The two colon cancer cell lines were seeded, respectively, onto 60-mm plates at 2×10^5 cells. Then, after 24 hours, while performing medium exchange, the cells were subjected to treatment with the sample compounds at respective concentrations (1 μM, 5 μM) for 48 hours. After 48 hours, the cells and cell suspensions were collected (1,500 rpm, 3 minutes), and live cells and dead cells were quantitated (n=2) through trypan blue (15250-061, Gibco) exclusion assay.

active RON (pTyr-RON) = assay: Western blotting of active RON in KM12C; assay type: cell-based, human
Protocol: The cell killing efficacy of Example 18 and Comparative Example 1 was analyzed, and then the cells were collected. Western blotting was performed to identify inhibitory capacity of Example 18 on active RON. RIPA Lysis Buffer (T&I) was added to the respective cells so as to achieve lysis. Then, BCA kit (Pierce) was used to quantify proteins. The proteins were loaded onto 6% SDS-polyacrylamide with a protein concentration of 40 μg, and electrophoresis was performed at 125 V.
Subsequently, the proteins were reacted with primary antibody (active RON, beta actin), which was diluted 1:1,000 in 5% non-fat skim milk-TBST solution, at 4° C. for 24 hours or 48 hours. Then, washing with TBST was performed three times. The resultant was reacted with anti-rabbit and anti-mouse IgG conjugated horseradish peroxidase (HRP) secondary antibody, which was diluted at 1:1,000, at room temperature for 2 hours. Then, washing with TBST was washed three times. Subsequently, the membrane was treated with the ECL solution (GE Healthcare), and developed by exposure to an X-ray film. Then, the bands were checked.

[3] = tested on: colon cancer patient tissue (active RON/RON mutant #1: Δ160); assay: Efficacy in animal model transplanted with colon cancer patient tissue, 30 mpk; assay type: in vivo; details: 30 mpk for 4 weeks
Protocol: Example 18 and Comparative Example 1 were administered to an animal model transplanted with the same patient tissue (active RON/RON mutant #1: Δ160) cells as in the animal model transplanted with colon cancer patient tissue tumor cells at 30 mpk for 4 weeks. […] The lower pictures of FIG. 21 show tumors extracted from representative individuals of the respective groups.

[4] = tested on: colon cancer patient-derived cell line expressing active RON; assay: Cell death in colon cancer patient-derived cell line expressing active RON (immunofluorescence); assay type: cell-based, human; details: 5 ug, 48 hours, KRAS normal
Protocol: The following condition and methods were used to perform the present experiment. […] Then, the respective cell lines were seeded at 5×10^5 cells onto 24-well plates, in which one sterile 12 mmΦ microscope cover glass was placed on each well, and incubated. The respective colon cancer patient-derived cell lines under incubation were subjected to treatment with Example 18 and Comparative Example 1, respectively, at 5 ug, and then incubated for 48 hours. Each incubated plate was washed twice with PBS, and then fixed with 100% Me-OH at room temperature for 5 minutes. The Me-OH was removed, and washing with PBS was performed three times for 5 minutes each. Then, 100 ul of 0.1% Triton X-100 (in PBS) was dispensed thereinto and permeabilization was allowed to occur for 5 minutes. Washing with PBS was performed three times for 5 minutes each, and then PBS was added thereto to prevent drying. Parafilm was attached to the 24-well plate cover, and then PBS-T (PBS+0.1% Tween 20) containing 3% BSA was dropped by 20 μl onto the parafilm. […] Then, washing with PBS-T (PBS+0.1% Tween 20) was performed twice, and a fluorescence microscope was used to identify the staining. […] Then, the cover glass was placed thereon, and a fluorescence microscope was used to take a fluorescence image.

CCOc1ccn(-c2ccc(F)cc2)c(=O)c1C(=O)Nc1ccc(Oc2ccnc3cc(-c4ccc(CN5CCOCC5)cn4)sc23)c(F)c1.Cl [Example 18, 4-ethoxy-N-[3-fluoro-4-({2-[5-(morpholinomethyl)pyridin-2-yl]thieno[3,2-b]pyridine-7-yl}oxy)phenyl]-1-(4-fluorophenyl)-2-oxo-1,2-dihydropyridine-3-carboxamide hydrochloride]
IC50 (KM12C (RONΔ160) [1]): 6.9 nM
Cell death, KM12C (RONΔ160) (KM12C (RONΔ160) [2]; 1 μM): 29.0
Cell death, KM12C (RONΔ160) (KM12C (RONΔ160) [2]; 5 μM): 35.2
expression of active RON (Western blotting) (active RON (pTyr-RON)): decreases
tumor growth inhibition efficacy [3]: about 73%
cell death-inducing efficacy (cleaved caspase 3 immunofluorescence) [4]: exhibits cell death-inducing efficacy
